{"source": "paper PMC11121495", "about": "“Blap-6, a Novel Antifungal Peptide from the Chinese Medicinal Beetle Blaps rhynchopetera against Cryptococcus neoformans” (International Journal of Molecular Sciences, 2024)", "key": {"C. neoformans ATCC 32045 [1]": {"test_system": "C. neoformans ATCC 32045", "experiment": "Transmission electron microscopy of treated cells", "format": "cell-based, Cryptococcus neoformans", "details": "1 × MIC (0.81 μM), 12 h, 37 °C", "protocol": "The suspension of C. neoformans ATCC 32045 was prepared and then centrifuged at 3500 rpm for 5 min. The supernatant was discarded, and sterile normal saline was added for washing. That is, the above operation was repeated three times and re-suspended. […] The positive control, including the concentration of fluconazole and amphotericin, was 1 × MIC. The negative control was added with the same volume of sterile normal saline. After the sample was added to the fungal solution, it was incubated in an incubator at 37 °C for 12 h, and then centrifuged at 1000 rpm for 10 min. The supernatant was discarded, and osmium tetroxide was slowly added along the tube wall for fixation and fixed at 4 °C for 3 h. Gradient ethanol was used for dehydration, infiltration, and embedding. Finally, ultrathin sections were performed. After the above operation, the morphological changes in C. neoformans were observed by TEM (Tecnai G2 Spirit, FEI, Eindhoven, Holland) and photographed."}, "MRSA": {"test_system": "MRSA", "experiment": "microbe, parasite or virus in culture", "format": "cell-based", "excerpt": "(§1) These standard strains of Escherichia coli (E. coli, ATCC 8739), Staphylococcus aureus (S. aureus, ATCC 6538), Pseudomonas aeruginosa (P. aeruginosa, ATCC 27853), Acinetobacter baumannii (A. baumannii, ATCC 1968), Candida albicans (ATCC 10231), and the clinical strain of Methicillin-resistant Staphylococcus aureus (MRSA, MRSA-Z) were obtained from Kunming Medical University. The standard strain of C. neoformans (ATCC 32045) was purchased from Shanghai Yingxin Laboratory Co., Ltd. (CAS NO. YXJ50058). Different strains of E. coli, S. aureus, MRSA, P. aeruginosa, and A. baumannii were cultured with shaking at 37 °C in Luria–Bertani (LB) medium. C. neoformans was cultured at 35 °C in Sabouraud Dextrose Agar (SDA) medium according to the manufacturer’s instructions.\n(§2) According to Clinical and Laboratory Standards Institute (CLSI) protocols, the minimum inhibitory concentration (MIC) is the minimum drug concentration at which antibiotics inhibit the growth and reproduction of strains. The different strains were grown in their corresponding media at 35 °C or 37 °C until they entered the exponential growth phase. Fluconazole and amphotericin B were used as positive controls, and sterile 0.9% NaCl was used as a negative control. The peptides were diluted to various concentrations in sterile saline. According to 1 OD = 1 × 10^9 CFU/mL, the above bacterial solution was diluted to 2 × 10^5 CFU/mL with the corresponding medium. In advance, 100 μL of normal saline was added to a sterile 96-well plate, and 200 μL of the sample to be tested was added to the first well. The sample to be tested was subjected to double gradient dilution, and then 100 μL of bacterial solution with a concentration of 2 × 10^5 was added to each well. It was cultured at 35 °C or 37 °C for different times. The light absorption value of the bacterial solution at 600 nm was detected by a microplate reader (Epoch Etock, Biotek, Winooski, VT, USA), and the average concentration of the samples in the pores and adjacent pores that could not detect microbial growth was used as the MIC value."}, "C. neoformans ATCC 32045 [2]": {"test_system": "C. neoformans ATCC 32045", "experiment": "Reactive oxygen species detection, H2DCFDA", "format": "cell-based, Cryptococcus neoformans", "details": "1 × MIC, 8 × MIC, 32 × MIC, 30 min, 35 °C; H2DCFDA 10 μM, 488/525 nm", "protocol": "2′,7′-Dichlorofluorescin diacetate (H2DCFDA) is a cell-permeable probe for detecting intracellular ROS [77]. […] The different concentrations of blap-6 (1 × MIC, 8 × MIC, and 32 × MIC) were incubated with the diluted fungal solution at 35 °C for 30 min, and 0.1 mM H2O2 was used as a positive control. The negative control group was treated with normal saline and incubated at 37 °C for 30 min. Centrifuged at 8000 rpm and 4 °C for 5 min, discard the supernatant, leaving the cell precipitate. The H2DCFDA dye (Boer, Shanghai, China) was dissolved in DMSO and diluted with normal saline containing 1% DMSO to a final concentration of 10 μM. And added 1 mL of H2DCFDA (10 μM) working solution to each tube and incubated at 35 °C for 30 min. And then precipitated the pellets, discarded the supernatant, and paid attention not to suck out the fungi. […] The excitation/wavelength emission was set at 488/525 nm, and three replicates were set in the experiment."}, "C. albicans": {"test_system": "C. albicans", "experiment": "microbe, parasite or virus in culture", "format": "cell-based, Candida albicans (ATCC 10231)", "excerpt": "as §1, §2"}, "S. aureus": {"test_system": "S. aureus", "experiment": "microbe, parasite or virus in culture", "format": "cell-based, Staphylococcus aureus (ATCC 6538)", "excerpt": "as §1, §2"}, "[3]": {"test_system": "C. neoformans ATCC 32045 cell membrane", "experiment": "Membrane potential, DiSC3(5) staining", "format": "cell-based, Cryptococcus neoformans", "details": "1 × MIC, 8 × MIC and 16 × MIC; DiSC3(5) 0.5 μM, ex/em 622/670 nm", "protocol": "DiSC3(5) is a fluorescent probe often used as a tracer dye to assess the cell membrane potential. […] C. neoformans ATCC 32045 was selected for SDB medium and cultured in a constant-temperature shaker at 35 °C to the logarithmic phase. The supernatant was removed by centrifugation at 3500 rpm for 5 min, washed three times with normal saline, and then the fungal solution was diluted with normal saline containing 100 mM potassium chloride to an OD600 of about 0.1. […] The above-mixed suspension was added to a fluorescence-specific 96-well plate, 190 μL per well, and the excitation/emission wavelength was set at 622/670 nm, and a microplate reader was used for measurement. The measurement was performed until the microplate reader value was stable and then continued for 20 min. The experimental group was added with 10 μL blap-6 to make the final concentrations 16 × MIC, 8 × MIC, and 1 × MIC, respectively. The positive control group was added with 10 μL of valinomycin to a final concentration of 10 μM. The negative control was added to 10 μL of normal saline. Continue to measure for 60 min. Three replicates were set up in the experiment."}}, "note": "Where no end group is shown, it is not given here."}
{"sequence": "KRCRFRIYRWGFPRRRF [blap-6]", "values": [{"measurement": "cell morphology by TEM", "setting": "C. neoformans ATCC 32045 [1]", "result": "severe disruption of the structural and cellular morphology"}, {"measurement": "MIC", "setting": "MRSA", "result": 4.89, "unit": "µM"}, {"measurement": "production of reactive oxygen species (ROS)", "setting": "C. neoformans ATCC 32045 [2]", "result": "concentration-dependent increase"}, {"measurement": "MIC", "setting": "C. albicans", "result": 1.22, "unit": "µM"}, {"measurement": "MIC", "setting": "S. aureus", "result": 9.77, "unit": "µM"}, {"measurement": "change of membrane potential", "setting": "[3]", "result": "deviations toward cell hyperpolarization in a dose-dependent manner"}]}
